Results taken from the NIST ThermoML archive (doi:10.1016/j.jct.2009.05.001).

Assay: xn = mol fraction of the nth substance listed
Details: 101 kPa, Liquid; for speed of sound: Sing-around technique in a fixed-path interferometer; for mass density: Vibrating tube method

ClC(Cl)C(Cl)Cl [1,1,2,2-tetrachloroethane] + CCCCCCO
Details | mass density, 308.15 K [kg/m3] | mass density, 313.15 K [kg/m3] | speed of sound, 308.15 K [m/s] | speed of sound, 313.15 K [m/s]
x1 = 0.0688 | 853.014 | 849.095 | 1241.8 | 1225.3
x1 = 0.123 | 889.246 | 885.104 | 1220.7 | 1204.1
x1 = 0.2457 | 973.918 | 969.244 | 1176.4 | 1160
x1 = 0.3618 | 1057.58 | 1052.37 | 1138.6 | 1122.3
x1 = 0.4502 | 1123.79 | 1118.17 | 1112.2 | 1096
x1 = 0.5583 | 1208.04 | 1201.9 | 1082.7 | 1066.7
x1 = 0.6518 | 1283.92 | 1277.31 | 1060 | 1044.2
x1 = 0.7068 | 1329.98 | 1323.07 | 1047.9 | 1032.3
x1 = 0.7419 | 1360.06 | 1352.96 | 1040.7 | 1025.1
x1 = 0.7797 | 1392.95 | 1385.63 | 1033.5 | 1018
x1 = 0.8315 | 1438.91 | 1431.3 | 1024.4 | 1009.1
x1 = 0.8718 | 1475.7 | 1467.85 | 1018 | 1002.8
x1 = 0.9179 | 1518.39 | 1510.31 | 1012.1 | 997.14
x1 = 0.9504 | 1549.36 | 1541.12 | 1009.1 | 994.34
x1 = 1 | 1597.75 | 1589.36 | 1008.9 | 994.15

BrCCBr [1,2-dibromoethane] + CCCCCCO
Details | mass density, 308.15 K [kg/m3] | mass density, 313.15 K [kg/m3] | speed of sound, 308.15 K [m/s] | speed of sound, 313.15 K [m/s]
x1 = 0.0402 | 845.2 | 841.335 | 1246.8 | 1230.7
x1 = 0.0682 | 871.58 | 867.573 | 1231.5 | 1215.3
x1 = 0.1276 | 929.152 | 924.828 | 1200.8 | 1184.8
x1 = 0.2056 | 1008.3 | 1003.54 | 1163.8 | 1148.2
x1 = 0.2686 | 1075.32 | 1070.19 | 1136.5 | 1121.2
x1 = 0.3892 | 1211.59 | 1205.72 | 1090.4 | 1075.6
x1 = 0.4277 | 1258.28 | 1252.15 | 1077 | 1062.5
x1 = 0.5444 | 1406.53 | 1399.6 | 1041.2 | 1027.1
x1 = 0.6405 | 1539.27 | 1531.62 | 1016.5 | 1003
x1 = 0.7326 | 1676.75 | 1668.38 | 996.88 | 983.86
x1 = 0.8519 | 1871.88 | 1862.55 | 978.58 | 966.15
x1 = 0.9273 | 2006.87 | 1996.95 | 971.93 | 959.29
x1 = 0.9587 | 2066.14 | 2055.98 | 970.13 | 957.92
x1 = 0.9782 | 2104.45 | 2094.14 | 969.05 | 956.68
x1 = 1 | 2148.2 | 2137.69 | 968.69 | 956.08

ClCCCl [1,2-dichloroethane] + CCCCCCO
Details | mass density, 308.15 K [kg/m3] | mass density, 313.15 K [kg/m3] | speed of sound, 308.15 K [m/s] | speed of sound, 313.15 K [m/s]
x1 = 0.037 | 817.675 | 813.926 | 1262.4 | 1246.1
x1 = 0.0769 | 828.456 | 824.595 | 1254.6 | 1238.5
x1 = 0.1499 | 848.617 | 844.565 | 1240.1 | 1223.2
x1 = 0.2147 | 867.202 | 863.005 | 1226.8 | 1210.1
x1 = 0.2935 | 891.704 | 887.346 | 1212.5 | 1195.8
x1 = 0.3952 | 926.131 | 921.594 | 1195.1 | 1177.8
x1 = 0.4532 | 947.081 | 942.428 | 1185.4 | 1167.5
x1 = 0.5596 | 988.685 | 983.815 | 1169.3 | 1151.5
x1 = 0.6113 | 1010.54 | 1005.54 | 1162 | 1144.6
x1 = 0.6971 | 1049.83 | 1044.5 | 1153.5 | 1135.8
x1 = 0.7791 | 1091.94 | 1086.13 | 1148.8 | 1131.2
x1 = 0.8563 | 1135.2 | 1128.8 | 1148 | 1129
x1 = 0.9335 | 1184.46 | 1177.4 | 1151.1 | 1128.9
x1 = 0.979 | 1215.34 | 1207.97 | 1152.8 | 1132.9
x1 = 1 | 1230.88 | 1223.41 | 1155.3 | 1136.2

CCCCCCO [hexan-1-ol] + BrCCBr
x2 = 0
Details | mass density [kg/m3] | speed of sound [m/s]
308.15 K | 808.056 | 1270.2
313.15 K | 804.397 | 1253.6

CCCCCCO [hexan-1-ol] + ClC(Cl)C(Cl)Cl
x2 = 0
Details | mass density [kg/m3] | speed of sound [m/s]
308.15 K | 808.056 | 1270.2
313.15 K | 804.397 | 1253.6

CCCCCCO [hexan-1-ol] + ClCCCl
x2 = 0
Details | mass density [kg/m3] | speed of sound [m/s]
308.15 K | 808.056 | 1270.2
313.15 K | 804.397 | 1253.6
